This is an account of results in patent publication US9695192B2, “Fused heterocyclic compounds as ion channel modulators” (GILEAD SCIENCES, INC., priority 2011, dated 2017).

Test [1] addresses hNav1.5 Peak INa (Homo sapiens, UniProt Q14524). Briefly: Peak INa screening assay (tonic block and use-dependent block). Format: cell-based. Here is the method: The assay uses an HEK293 (human embryonic kidney) cell line heterologously expressing the wild-type human cardiac sodium channel, hNav1.5, purchased from Millipore (Billerica, Mass.). No beta subunits were coexpressed with the Na channel alpha subunit. Cells are maintained with standard tissue culture procedures and stable channel expression is maintained with 400 μg/mL Geneticin in the culture medium. […] Experiments are carried out at 23-25° C. […] Currents through open sodium channels are automatically recorded and stored in the Sophion Bioscience Oracle database (Sophion Bioscience, Copenhagen, Denmark). Analysis is performed using QPatch Assay and database software and data are compiled in Excel. Compound stocks are routinely made by the Gilead Sample Bank in plastic vials to 10 mM in dimethyl sulfoxide (DMSO). […] Stocks are sonicated as necessary. […] Compounds are diluted in extracellular solution to 1 μM in glass vials and then transferred to glass well plates before robotic addition to the cells. […] Good separation between the concentrations of test compound to reduce late and peak INa is beneficial to enable separation of the desired effect to reduce late INa-induced electrical and mechanical dysfunction from the undesired effect to reduce peak INa, which can lead to slowing or block of conduction of electrical excitation in the heart. It is contemplated that the compounds of Formula I avoid significant block of peak INa. […] Analysis of peak INa generally requires correction for rundown before determining the % block of peak current by the tested compound. […] Use-dependent block refers to the accumulation of block with increased frequency of channel activation. […] It is therefore expected that reduction of peak INa by compounds of this disclosure will be greater at high heart rates, such as those during tachyarrhythmias, than at normal heart rates. […] The intracellular solution used for the Peak INa assay is the same as outlined for the Late INa assay (see above). […] After establishing the whole cell recording configuration, channels were stimulated to open with low frequency stimulation (0.1 Hz) for 7 minutes so that the recording can be monitored and the extent to which the recording has stabilized can be assessed. […] Both TB and UDB were analyzed by incorporating rundown correction for the peak INa and UDB as calculated by compensating for the small use-dependent effect of the stimulation protocol on peak INa in the absence of compound.

The target of test [2] is wild-type human cardiac sodium channel, hNav1.5 (Homo sapiens, UniProt Q14524). Briefly: Late INa screening assay (QPatch whole cell patch clamp, tefluthrin-enhanced late sodium current). Format: cell-based. The settings on record: HEK293 hNav1.5, late INa activated with 10 μM Tefluthrin. The procedure: The late sodium current (Late INa) and peak sodium current (Peak INa) assays are performed on an automated electrophysiology platform, QPatch 16X (Sophion Bioscience, Copenhagen, Denmark), which uses the whole cell patch clamp technique to measure currents through the cell membrane of up to 16 cells at a time. The assay uses an HEK293 (human embryonic kidney) cell line heterologously expressing the wild-type human cardiac sodium channel, hNav1.5, purchased from Millipore (Billerica, Mass.). No beta subunits were coexpressed with the Na channel alpha subunit. Cells are maintained with standard tissue culture procedures and stable channel expression is maintained with 400 μg/mL Geneticin in the culture medium. Cells isolated for use on QPatch are incubated for 5 minutes in Detachin 1X (Genlantis, San Diego, USA) at 37° C. to ensure that 80-90% of the cells are single and not part of a cell cluster. Experiments are carried out at 23-25° C.
For both the Late INa and Peak INa assays, series resistance compensation is set to 100% and series resistance and whole-cell compensation are performed automatically. Currents are digitized at 25 kHz and low-pass filtered at 12 kHz and 10 kHz for the late and peak INa assays, respectively. Currents through open sodium channels are automatically recorded and stored in the Sophion Bioscience Oracle database (Sophion Bioscience, Copenhagen, Denmark). Analysis is performed using QPatch Assay and database software and data are compiled in Excel.
Compound stocks are routinely made by the Gilead Sample Bank in plastic vials to 10 mM in dimethyl sulfoxide (DMSO). In some cases, when compounds are not soluble in DMSO, they are made in 100% ethanol. Stocks are sonicated as necessary. The extracellular solution for screening Late INa is composed of: 140 mM NaCl, 4 mM KCl, 1.8 mM CaCl2, 0.75 mM MgCl2 and 5 mM HEPES with pH adjusted to 7.4 using NaOH. The intracellular solution used to perfuse the inside of the cells for both the Late INa and Peak INa assays contains: 120 mM CsF, 20 mM CsCl, 5 mM EGTA, 5 mM HEPES and pH adjusted to 7.4 with CsOH. Compounds are diluted in extracellular solution to 1 μM in glass vials and then transferred to glass well plates before robotic addition to the cells. A 0 mM Na extracellular solution (0 Na-ECF) is used at the end of each experiment for the Late INa and Peak INa assays to measure baseline current contains: 140 mM N-methyl-D-glucamine; 4 mM KCl; 1.8 mM CaCl2; 0.75 mM MgCl2; 5 mM HEPES and pH was adjusted to 7.4 with HCl.
For the hNav1.5 Late INa assay, sodium channels are activated every 10 seconds (0.1 Hz) by depolarizing the cell membrane to −20 mV for 250 milliseconds (ms) from a holding potential of −120 mV. In response to a −20 mV voltage step, typical hNav1.5 sodium currents activate rapidly to a peak negative current and then inactivate nearly completely within 3-4 ms.
Compounds were tested to determine their activity in blocking the late sodium current. Late INa was generated by adding 10 μM Tefluthrin (pyrethroid) to the extracellular solution while recording Na currents. To confirm the block of late INa observed using the automated screening method, a second late INa enhancer (ATX-II) and the manual patch clamp method were used. ATX-II and tefluthrin occupy distinct, non-overlapping binding sites and modify Na^+ channel function differently to increase late INa. Compounds tested have been found generally to inhibit the enhanced late INa caused by either late INa enhancer. For the purposes of the screening, late INa is defined as the mean current between 225 ms and 250 ms after stepping to −20 mV to activate Na channels. After establishing the whole cell recording configuration, late INa activator is added to each well 4 times over a 16-17 minute period so that the late component of the Na current reaches a stable value. Compounds were then added (typically at 1 μM), in the presence of the late INa activator, with 3 additions over the course of 7 or 8 minutes. […]
A general note: The patch-clamp technique gives a direct electrical read-out from membranes.

Setting [3] is: at 1 μM, 3 Hz stimulation, holding potential −100 mV, read-out: Peak UDB (use-dependent block of peak INa) % Inhibition.
The mark [4] stands for this setting: read-out: Peak TB (tonic block of peak INa) % Inhibition.

Where two headings read alike, the source gives them in different places.

Chain of wild-type human cardiac sodium channel, hNav1.5 (Q14524 whole entry): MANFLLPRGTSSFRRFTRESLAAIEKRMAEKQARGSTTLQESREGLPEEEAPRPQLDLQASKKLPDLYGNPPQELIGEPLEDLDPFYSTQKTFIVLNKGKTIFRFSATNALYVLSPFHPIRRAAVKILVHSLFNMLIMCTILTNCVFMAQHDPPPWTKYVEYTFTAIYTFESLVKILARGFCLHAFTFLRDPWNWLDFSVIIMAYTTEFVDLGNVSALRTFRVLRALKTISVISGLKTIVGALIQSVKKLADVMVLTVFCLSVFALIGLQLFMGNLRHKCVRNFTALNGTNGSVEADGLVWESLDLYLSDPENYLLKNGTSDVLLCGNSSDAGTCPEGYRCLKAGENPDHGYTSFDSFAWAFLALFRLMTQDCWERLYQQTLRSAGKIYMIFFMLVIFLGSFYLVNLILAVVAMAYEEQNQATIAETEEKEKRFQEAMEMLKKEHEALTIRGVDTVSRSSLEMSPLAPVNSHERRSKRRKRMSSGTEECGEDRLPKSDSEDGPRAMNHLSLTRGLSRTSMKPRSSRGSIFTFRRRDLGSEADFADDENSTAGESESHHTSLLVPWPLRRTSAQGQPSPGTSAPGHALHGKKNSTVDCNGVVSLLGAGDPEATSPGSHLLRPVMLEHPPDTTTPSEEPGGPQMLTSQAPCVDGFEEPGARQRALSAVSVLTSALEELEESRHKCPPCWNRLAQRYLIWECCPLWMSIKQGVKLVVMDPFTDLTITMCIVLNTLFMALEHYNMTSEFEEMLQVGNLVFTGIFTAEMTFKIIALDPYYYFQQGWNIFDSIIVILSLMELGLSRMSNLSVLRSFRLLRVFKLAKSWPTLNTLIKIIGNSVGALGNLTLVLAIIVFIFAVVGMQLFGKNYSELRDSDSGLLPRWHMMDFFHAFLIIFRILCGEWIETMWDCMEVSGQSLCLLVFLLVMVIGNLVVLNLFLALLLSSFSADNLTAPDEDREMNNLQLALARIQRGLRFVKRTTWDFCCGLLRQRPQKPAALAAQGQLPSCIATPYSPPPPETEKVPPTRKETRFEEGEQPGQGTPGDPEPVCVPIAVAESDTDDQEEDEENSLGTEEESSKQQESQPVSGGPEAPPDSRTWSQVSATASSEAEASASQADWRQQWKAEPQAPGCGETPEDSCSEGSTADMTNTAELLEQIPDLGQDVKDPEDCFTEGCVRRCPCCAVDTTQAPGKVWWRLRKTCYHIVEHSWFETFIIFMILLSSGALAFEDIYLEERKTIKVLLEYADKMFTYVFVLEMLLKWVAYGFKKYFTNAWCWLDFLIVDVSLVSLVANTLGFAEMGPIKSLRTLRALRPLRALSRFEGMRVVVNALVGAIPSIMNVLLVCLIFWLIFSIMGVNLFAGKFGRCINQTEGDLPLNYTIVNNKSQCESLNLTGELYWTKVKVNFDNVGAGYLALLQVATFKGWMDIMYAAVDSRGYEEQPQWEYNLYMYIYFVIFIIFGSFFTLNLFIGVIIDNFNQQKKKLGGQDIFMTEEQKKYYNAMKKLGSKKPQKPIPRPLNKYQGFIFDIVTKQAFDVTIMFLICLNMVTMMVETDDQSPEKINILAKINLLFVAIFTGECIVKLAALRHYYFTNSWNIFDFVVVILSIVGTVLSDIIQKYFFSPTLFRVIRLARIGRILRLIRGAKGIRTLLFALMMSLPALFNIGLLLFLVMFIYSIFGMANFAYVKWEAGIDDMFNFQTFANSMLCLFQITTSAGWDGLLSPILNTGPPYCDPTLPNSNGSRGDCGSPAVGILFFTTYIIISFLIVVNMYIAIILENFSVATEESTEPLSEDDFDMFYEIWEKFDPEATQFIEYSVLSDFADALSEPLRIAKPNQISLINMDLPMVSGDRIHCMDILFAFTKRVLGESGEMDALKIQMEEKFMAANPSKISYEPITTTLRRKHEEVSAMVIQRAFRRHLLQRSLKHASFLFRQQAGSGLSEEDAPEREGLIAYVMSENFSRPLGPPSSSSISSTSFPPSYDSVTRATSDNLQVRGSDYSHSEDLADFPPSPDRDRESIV
Chain of hNav1.5 Peak INa (Q14524 whole entry): as above

A word on the inhibition: it is how much of the control response was suppressed. Take `CC(C)(C)OC(=O)N1CC[C@@H](NC2=NCCOc3ccc(-c4ccc(C(F)(F)F)cc4)cc32)C1` [II-63, (R)-tert-butyl 3-(7-(4-(trifluoromethyl)phenyl)-2,3-dihydrobenzo[f][1,4]oxazepin-5-ylamino)pyrrolidine-1-carboxylate]: the inhibition at 1 µM in test [1] (setting [3]) is 31%; in test [1] (setting [4]), 12%; in test [2], 51%.

For the molecule `FC(F)(F)c1ccc(-c2ccc3c(c2)C(NCC2CC2)=NCCO3)cc1` [II-11, N-(cyclopropylmethyl)-7-(4-(trifluoromethyl)phenyl)-2,3-dihydrobenzo[f][1,4]oxazepin-5-amine], the inhibition at 1 µM came out at 31% in test [1] (setting [3]), 11% in test [1] (setting [4]) and 41% in test [2].

Regarding `CC(C)(C)OC(=O)N1CC[C@H](NC2=NCCOc3ccc(-c4ccc(C(F)(F)F)cc4)cc32)C1` [II-43, (S)-tert-butyl 3-(7-(4-(trifluoromethyl)phenyl)-2,3-dihydrobenzo[f][1,4]oxazepin-5-ylamino)pyrrolidine-1-carboxylate], the inhibition at 1 µM in test [1] (setting [3]) turned out to be 31%; in test [1] (setting [4]), 12%; in test [2], 46%.

On to `CC(C)(C)OC(=O)N1CCC(NC2=NCCOc3ccc(-c4ccc(C(F)(F)F)cc4)cc32)C1` (centres unmarked) [II-62, tert-butyl 3-(7-(4-(trifluoromethyl)phenyl)-2,3-dihydrobenzo[f][1,4]oxazepin-5-ylamino)pyrrolidine-1-carboxylate], for which the inhibition at 1 µM stood at 32% in test [1] (setting [3]), 8% in test [1] (setting [4]) and 43% in test [2].

Take `CC(C)(C)OC(=O)NC1CN(C2=NCCOc3ccc(-c4ccc(C(F)(F)F)cc4)cc32)C1` [II-12, tert-butyl 1-(7-(4-(trifluoromethyl)phenyl)-2,3-dihydrobenzo[f][1,4]oxazepin-5-yl)azetidin-3-ylcarbamate]: the inhibition at 1 µM in test [2] came out at 9%.

Turning to `FC(F)(F)c1ccc(-c2ccc3c(c2)C(N2CCCC2c2ccccn2)=NCCO3)cc1` (centres unmarked) [II-58, 5-(2-(pyridin-2-yl)pyrrolidin-1-yl)-7-(4-(trifluoromethyl)phenyl)-2,3-dihydrobenzo[f][1,4]oxazepine], in test [2], the inhibition at 1 µM was 18%.

As for `FC(F)(F)c1ccc(-c2ccc3c(c2)C(Nc2nnn[nH]2)=NCCO3)cc1` [II-26, N-(1H-tetrazol-5-yl)-7-(4-(trifluoromethyl)phenyl)-2,3-dihydrobenzo[f][1,4]oxazepin-5-amine], in test [2], the inhibition at 1 µM is 14%.

For the molecule `FC(F)(F)c1ccc(-c2ccc3c(c2)-c2ncc(-c4ncccn4)n2CCO3)cc1` [Compound I-7, 3-(pyrimidin-2-yl)-10-(4-(trifluoromethyl)phenyl)-5,6-dihydrobenzo[f]imidazo[1,2-d][1,4]oxazepine], the inhibition at 1 µM in test [2] worked out at 17%.

`FC(F)(F)c1ccc(-c2ccc3c(c2)C(NCCn2ccnc2)=NCCO3)cc1` [II-14, N-(2-(1H-imidazol-1-yl)ethyl)-7-(4-(trifluoromethyl)phenyl)-2,3-dihydrobenzo[f][1,4]oxazepin-5-amine]: the inhibition at 1 µM in test [2] worked out at 17%.

As to `FC(F)(F)c1ccc(-c2ccc3c(c2)-c2nc(C4CC4)cn2CCO3)cc1` [Compound I-20, 2-cyclopropyl-10-(4-(trifluoromethyl)phenyl)-5,6-dihydrobenzo[f]imidazo[1,2-d][1,4]oxazepine], the inhibition at 1 µM in test [2] was determined as 12%.

With `FC(F)(F)c1ccc(-c2ccc3c(c2)-c2nncn2CCO3)cc1` [Compound I-3, 10-(4-(trifluoromethyl)phenyl)-5,6-dihydrobenzo[f][1,2,4]triazolo[4,3-d][1,4]oxazepine], in test [2], the inhibition at 1 µM is 13%.

`O=C1CCCN1C1CCN(C2=NCCOc3ccc(-c4ccc(C(F)(F)F)cc4)cc32)CC1` [II-42, 1-(1-(7-(4-(trifluoromethyl)phenyl)-2,3-dihydrobenzo[f][1,4]oxazepin-5-yl)piperidin-4-yl)pyrrolidin-2-one]: in test [2], the inhibition at 1 µM stood at 9%.

As to `FC(F)(F)c1ccc(-c2ccc3c(c2)C(Nc2cccc(C(F)(F)F)n2)=NCCO3)cc1` [II-27, 7-(4-(trifluoromethyl)phenyl)-N-(6-(trifluoromethyl)pyridin-2-yl)-2,3-dihydrobenzo[f][1,4]oxazepin-5-amine], in test [2], the inhibition at 1 µM came out at 1%.

`Cc1cn2c(n1)-c1cc(-c3ccc(C(F)(F)F)cc3)ccc1OCC2` [Compound I-19, 2-methyl-10-(4-(trifluoromethyl)phenyl)-5,6-dihydrobenzo[f]imidazo[1,2-d][1,4]oxazepine]: the inhibition at 1 µM in test [2] came to 13%.

Regarding `FC(F)(F)Oc1ccc(-c2ccc3c(c2)-c2ncc(C4CC4)n2CCO3)cc1` [Compound I-18, 3-cyclopropyl-10-(4-(trifluoromethoxy)phenyl)-5,6-dihydrobenzo[f]imidazo[1,2-d][1,4]oxazepine], the inhibition at 1 µM in test [2] was found to be 20%.

Take `CC(C)(C)OC(=O)N[C@@H]1CCN(C2=NCCOc3ccc(-c4ccc(C(F)(F)F)cc4)cc32)C1` [II-50, (R)-tert-butyl 1-(7-(4-(trifluoromethyl)phenyl)-2,3-dihydrobenzo[f][1,4]oxazepin-5-yl)pyrrolidin-3-ylcarbamate]: the inhibition at 1 µM in test [2] is 22%.

With `FC(F)(F)c1ccc(-c2ccc3c(c2)C(NC2CC2)=NCCO3)cc1` [II-4, N-cyclopropyl-7-(4-(trifluoromethyl)phenyl)-2,3-dihydrobenzo[f][1,4]oxazepin-5-amine], the inhibition at 1 µM in test [2] turned out to be 25%.

For the molecule `C[C@H]1CN(C(=O)OC(C)(C)C)CCN1C1=NCCOc2ccc(-c3ccc(C(F)(F)F)cc3)cc21` [II-53, (S)-tert-butyl 3-methyl-4-(7-(4-(trifluoromethyl)phenyl)-2,3-dihydrobenzo[f][1,4]oxazepin-5-yl)piperazine-1-carboxylate], the inhibition at 1 µM in test [2] is 2%.
